Counter-ions that a name gives are not always drawn.
Experiments:
[1] = biological target: T1, human M3 muscarinic receptor (Homo sapiens, UniProt P20309); assay: Inhibitory effect on methacholine-induced calcium influx, FLIPR assay, CHO-K1 cells stably expressing the human M3 muscarinic receptor; type: cell-based; details: inhibition of calcium influx induced by methacholine
T1 construct: expressed in transfected cells; host or cells: CHO-K1
Description: Muscarinic receptor subtypes (M1, M3 and M5 receptors), which couple to Gq proteins, activate the phospholipase C (PLC) pathway upon agonist binding to the receptor. As a result, the activated PLC hydrolyzes phosphatidyl inositol diphosphate (PIP2) to diacyl glycerol (DAG) and […] (IP3), which in turn generates calcium release from intracellular stores, i.e., endoplasmic and sarcoplasmic reticula. By utilizing FLIPR (Molecular Devices, Inc.) assay in which a calcium sensitive dye (Component A) is used that fluoresces when free calcium binds, the increase in intracellular calcium is measured on the basis of the change in the fluorescence intensity.
Methacholine was added to CHO-K1 cells stably expressing the human M3 muscarinic receptor to induce calcium influx and evaluate the inhibitory effect of test compounds. In the experiment, a FLIPR Calcium assay kit (Molecular Devices, Inc.) was used.
CHO-K1 cells stably expressing the human M3 muscarinic receptor suspended in Ham's F-12 media (Invitrogen, Co.) containing 10% fetal bovine serum (FBS) were seeded into 96-well FLIPR plates at a volume of 100 μL/well. Next day, 60 μL/well of Non-wash-dye solution (Hank's buffered salt solution, HBSS, containing 20 mM HEPES and 6.5 mM probenecid) was added to the cells, which were then incubated for an hour at 37° C. in the presence of 5% carbon dioxide. 20 μL of 10 concentrations of test compound solutions (HBSS containing 1% DMSO, 20 mM HEPES, 2.5 mM probenecid and 0.05% bovine serum albumin, BSA) prepared at concentrations in a range of 0.01-1000 nM with 2-fold serial dilution) were added, followed by incubation for 180 seconds. Then, 20 μL of 30 nM methacholine solution (HBSS containing 20 mM HEPES, 2.5 mM probenecid and 0.05% bovine serum albumin, BSA) was added, and fluorescence intensity was traced by the intracellular calcium influx measuring device FLIPR 96 (Molecular Devices, Inc.) for 170 seconds. The difference between the lowest and the highest values of the fluorescence intensity (FI) over the period of the measurement was used as a measured value. The percentages of inhibition by the test compounds were calculated according to the following formula from the measured value of the methacholin-added and test compound non-added sample (FIpositive), the measured value of the methacholin non-added and test compound non-added sample (FInegative), and the measured value of the methacholin-added and test compound-added sample (FItest). (%) Percentage of inhibition by test compound=[(1−(FItest−FInegative)/(FIpositive−FInegative)]×100
The 50% inhibitory concentrations (IC50 values) of test compounds were analyzed by a four-parameter logistic model using XLfit4 (IDBS, Ltd.) for the percentage of the inhibition by different concentrations of test compounds.

[2] = biological target: T2, human β2 adrenergic receptor (Homo sapiens, UniProt P07550); assay: Whole-cell cAMP Flashplate assay using CHO-K1 cells stably expressing human β2 adrenergic receptor; type: cell-based; details: cAMP production
T2 construct: expressed in transfected cells; host or cells: CHO-K1
T2 sequence (P07550 whole entry): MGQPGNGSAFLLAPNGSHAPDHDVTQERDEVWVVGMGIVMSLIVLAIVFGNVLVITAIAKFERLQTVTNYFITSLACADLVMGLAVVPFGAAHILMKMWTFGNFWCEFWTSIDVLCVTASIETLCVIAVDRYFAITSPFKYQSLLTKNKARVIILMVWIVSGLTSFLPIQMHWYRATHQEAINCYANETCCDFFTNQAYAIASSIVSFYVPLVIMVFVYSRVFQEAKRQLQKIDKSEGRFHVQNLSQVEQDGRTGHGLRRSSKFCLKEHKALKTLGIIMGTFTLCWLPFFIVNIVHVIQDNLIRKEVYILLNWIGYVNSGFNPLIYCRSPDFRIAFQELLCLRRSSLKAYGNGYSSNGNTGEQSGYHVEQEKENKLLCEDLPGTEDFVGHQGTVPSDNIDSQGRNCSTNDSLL
Method: The β2 adrenergic receptor, which couples to Gs proteins, activates adenylate cyclase upon agonist binding to the receptor. As a result, cAMP is produced in cells. The activation ability of the β2 adrenergic receptor can be measured by measuring the amount of the cAMP with cAMP-Screen System (Applied Biosystems).
CHO-K1 cells expressing the human β2 adrenergic receptor suspended in Ham's F-12 media containing 10% FBS were seeded into 96-well plates at a volume of 100 μL/well. Next day, they were washed with 200 μL PBS(−), to which 80 μL of 0.5 mM IBMX solution (Ham's F-12 media containing 0.05% BSA) was then added, followed by incubation for 20 minutes at 37° C. in the presence of 5% carbon dioxide. 20 μL of 9 concentrations of test compound solutions (0.5 mM IBMX solution containing 1% DMSO) prepared at concentrations in a range of 0.01-1000 nM with 2-fold serial dilution) were added, followed by incubation for 20 minutes at 37° C. in the presence of 5% carbon dioxide. Then, 100 μL of Assay/Lysis Buffer (a reagent that comes with cAMP Screen System) was added. The cells were lysed by pipetting, further incubated for 30 minutes at 37° C., and then frozen at −80° C. After several days, samples, thawed at room temperature, were treated according to the protocol of cAMP Screen System, and then chemiluminescence was measured by EnVision (PerkinElmer, Inc.). The amount of cAMP was calculated from the standard curve for the standard attached to cAMP Screen System.
The concentrations of a test compound at which 50% of its maximal effect is reached (EC50 values) were analyzed by a four-parameter logistic model using XLfit4 (IDBS, Ltd.) for the amounts of cAMP production at different concentrations of the test compounds.

T1 sequence (P20309 whole entry): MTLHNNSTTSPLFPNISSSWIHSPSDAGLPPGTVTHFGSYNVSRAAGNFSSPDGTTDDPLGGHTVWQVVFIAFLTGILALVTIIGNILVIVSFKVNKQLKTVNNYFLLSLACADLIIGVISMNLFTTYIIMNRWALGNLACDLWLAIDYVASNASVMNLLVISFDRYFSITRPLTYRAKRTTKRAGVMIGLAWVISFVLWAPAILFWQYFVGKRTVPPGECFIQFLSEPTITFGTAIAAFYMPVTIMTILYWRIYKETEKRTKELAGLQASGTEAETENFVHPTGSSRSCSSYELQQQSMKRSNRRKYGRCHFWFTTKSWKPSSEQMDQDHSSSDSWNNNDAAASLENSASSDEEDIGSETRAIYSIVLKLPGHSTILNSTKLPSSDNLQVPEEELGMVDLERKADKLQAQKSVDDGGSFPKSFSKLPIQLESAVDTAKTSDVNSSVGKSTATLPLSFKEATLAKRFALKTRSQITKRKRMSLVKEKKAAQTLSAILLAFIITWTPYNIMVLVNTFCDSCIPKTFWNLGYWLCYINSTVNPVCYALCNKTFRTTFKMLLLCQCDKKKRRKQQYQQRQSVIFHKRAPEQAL

| Structure (SMILES) | IC50 [1] | EC50 [2] |
| --- | --- | --- |
| C[N+]1(C)CCC(OC(=O)Nc2cc(CCC(=O)Nc3ccc(CNC[C@H](O)c4ccc(O)c5[nH]c(=O)ccc45)c(F)c3)ccc2-c2ccccc2)CC1 [Example 7, 4-({[5-(2-{[3-fluoro-4-({[(2R)-2-hydroxy-2-(8-hydroxy-2-oxo-1,2-dihydroquinolin-5-yl)ethyl]amino}methyl)phenyl]carbamoyl}ethyl)-2-phenylphenyl]carbamoyl}oxy)-1,1-dimethylpiperidin-1-ium trifluoro acetate] | 14.5 nM | 5.1 nM |
| CCOc1cc(NC(=O)CCc2ccc(-c3ccccc3)c(NC(=O)OC3C[C@@H]4[C@H]5O[C@H]5[C@H](C3)[N+]4(C)C)c2)ccc1CNC[C@H](O)c1ccc(O)c2[nH]c(=O)ccc12 (stereo partly drawn) [Example 47, (1R,2R,4S,5S,7S)-7-({[5-(2-{[4-({[(2R)-2-hydroxy-2-(8-hydroxy-2-oxo-1,2-dihydroquinolin-5-yl)ethyl]amino}methyl)-3-ethoxyphenyl]carbamoyl}ethyl)-2-phenylphenyl]carbamoyl}oxy)-9,9-dimethyl-3-oxa-9-azatricyclo[3.3.1.0^2,4]nonan-9-ium trifluoroacetate] | 16.5 nM | 1.9 nM |
| C[N+]1(C)[C@@H]2C[C@@H](OC(=O)Nc3ccc(CCCC(=O)Nc4ccc(CNC[C@H](O)c5ccc(O)c6[nH]c(=O)ccc56)cc4Br)cc3-c3ccccc3)C[C@H]1[C@@H]1O[C@@H]12 [Example 72, (1R,2R,4S,5S,7S)-7-({[4-(3-{[2-bromo-4-({[(2R)-2-hydroxy-2-(8-hydroxy-2-oxo-1,2-dihydroquinolin-5-yl)ethyl]amino}methyl)phenyl]carbamoyl}propyl)-2-phenylphenyl]carbamoyl}oxy)-9,9-dimethyl-3-oxa-9-azatricyclo[3.3.1.0^2,4]nonan-9-ium trifluoroacetate] | 49 nM | 0.3 nM |
| C[N+]1(C)CCC(OC(=O)Nc2ccc(CCC(=O)Nc3ccc(CNC[C@H](O)c4ccc(O)c5[nH]c(=O)ccc45)cc3)cc2-c2ccccc2)CC1 [Example 69, 4-({[4-(2-{[4-({[(2R)-2-hydroxy-2-(8-hydroxy-2-oxo-1,2-dihydroquinolin-5-yl)ethyl]amino}methyl)phenyl]carbamoyl}ethyl)-2-phenylphenyl]carbamoyl}oxy)-1,1-dimethylpiperidin-1-ium trifluoroacetate] | 44.7 nM | 16 nM |
| Cc1cc(NC(=O)CCc2ccc(-c3ccccc3)c(NC(=O)OC3CC[N+](C)(C)CC3)c2)ccc1CNC[C@H](O)c1ccc(O)c2[nH]c(=O)ccc12 [Example 8, 4-({[5-(2-{[4-({[(2R)-2-hydroxy-2-(8-hydroxy-2-oxo-1,2-dihydroquinolin-5-yl)ethyl]amino}methyl)-3-methylphenyl]carbamoyl}ethyl)-2-phenylphenyl]carbamoyl}oxy)-1,1-dimethylpiperidin-1-ium trifluoroacetate] | 13.5 nM | 5.1 nM |
| C[N+]1(C)CCC(OC(=O)Nc2cc(CCC(=O)Nc3ccc(CNC[C@H](O)c4ccc(O)c5[nH]c(=O)ccc45)cc3F)ccc2-c2ccccc2)CC1 [Example 4, 4-({[5-(2-{[2-fluoro-4-({[2R)-2-hydroxy-2-(8-hydroxy-2-oxo-1,2-dihydroquinolin-5-yl)ethyl]amino}methyl)phenyl]carbamoyl}ethyl)-2-phenylphenyl]carbamoyl}oxy)-1,1-dimethylpiperidin-1-ium trifluoroacetate] | 4.9 nM | 4.1 nM |
| C[N+]1(C)CCC(OC(=O)Nc2cc(CCCC(=O)Nc3ccc(CNC[C@H](O)c4ccc(O)c5[nH]c(=O)ccc45)cn3)ccc2-c2ccccc2)CC1 [Example 24, 4-({[5-(3-{[5-({[(2R)-2-hydroxy-2-(8-hydroxy-2-oxo-1,2-dihydroquinolin-5-yl)ethyl]amino}methyl)pyridin-2-yl]carbamoyl}propyl)-2-phenylphenyl]carbamoyl}oxy)-1,1-dimethylpiperidin-1-ium trifluoroacetate] | 11.7 nM | 6.6 nM |
| C[N+]1(C)CCC(OC(=O)Nc2cc(CCCCCCCCCNC[C@H](O)c3ccc(O)c4[nH]c(=O)ccc34)ccc2-c2ccccc2)CC1 [Example 76, 4-({[5-(9-{[(2R)-2-hydroxy-2-(8-hydroxy-2-oxo-1,2-dihydroquinolin-5-yl)ethyl]amino}nonyl)-2-phenylphenyl]carbamoyl}oxy)-1,1-dimethylpiperidin-1-ium trifluoroacetate] | 38 nM | 14.1 nM |
| C[N+]1(C)CCC(OC(=O)Nc2ccc(CCCC(=O)Nc3ccc(CNC[C@H](O)c4ccc(O)c5[nH]c(=O)ccc45)cc3)cc2-c2ccccc2)CC1 [Example 54, 4-({[4-(3-{[4-({[(2R)-2-hydroxy-2-(8-hydroxy-2-oxo-1,2-dihydroquinolin-5-yl)ethyl]amino}methyl)phenyl]carbamoyl}propyl)-2-phenylphenyl]carbamoyl}oxy)-1,1-dimethylpiperidin-1-ium trifluoroacetate] | 20.9 nM | 0.9 nM |
| C[N+]1(C)CCC(OC(=O)Nc2cc(CCCCOc3ccc(CNC[C@H](O)c4ccc(O)c5[nH]c(=O)ccc45)cc3)ccc2-c2ccccc2)CC1 [Example 61, 4-{[(5-{4-[4-({[(2R)-2-hydroxy-2-(8-hydroxy-2-oxo-1,2-dihydroquinolin-5-yl)ethyl]amino}methyl)phenoxy]butyl}-2-phenylphenyl)carbamoyl]oxy}-1,1-dimethylpiperidin-1-ium trifluoroacetate] | 37.8 nM | 8.7 nM |
| C[N+]1(C)CCC(OC(=O)Nc2cc(CCCC(=O)Nc3ccc(CNC[C@H](O)c4ccc(O)c5[nH]c(=O)ccc45)cc3F)ccc2-c2ccccc2)CC1 [Example 28, 4-({[5-(3-{[2-fluoro-4-({[(2R)-2-hydroxy-2-(8-hydroxy-2-oxo-1,2-dihydroquinolin-5-yl)ethyl]amino}methyl)phenyl]carbamoyl}propyl)-2-phenylphenyl]carbamoyl}oxy)-1,1-dimethylpiperidin-1-ium trifluoroacetate] | 10 nM | 0.7 nM |
| C[N+]1(C)[C@@H]2CC(OC(=O)Nc3cc(CCCCC(=O)Nc4ccc(CNC[C@H](O)c5ccc(O)c6[nH]c(=O)ccc56)cc4)ccc3-c3ccccc3)C[C@H]1[C@@H]1O[C@@H]12 (stereo partly drawn) [Example 50, (1R,2R,4S,5S,7S)-7-({[5-(4-{[4-({[(2R)-2-hydroxy-2-(8-hydroxy-2-oxo-1,2-dihydroquinolin-5-yl)ethyl]amino}methyl)phenyl]carbamoyl}butyl)-2-phenylphenyl]carbamoyl}oxy)-9,9-dimethyl-3-oxa-9-azatricyclo[3.3.1.0^2,4]nonan-9-ium trifluoroacetate] | 27.6 nM | 1.7 nM |
| COc1cc(CNC[C@H](O)c2ccc(O)c3[nH]c(=O)ccc23)ccc1NC(=O)CCCc1ccc(-c2ccccc2)c(NC(=O)OC2CC[N+](C)(C)CC2)c1 [Example 21, 4-({[5-(3-{[4-({[(2R)-2-hydroxy-2-(8-hydroxy-2-oxo-1,2-dihydroquinolin-5-yl)ethyl]amino}methyl)-2-methoxyphenyl]carbamoyl}propyl)-2-phenylphenyl]carbamoyl}oxy)-1,1-dimethylpiperidin-1-ium trifluoroacetate] | 16.8 nM | 3.8 nM |
